From US7811352B2, “Fertilizer compositions and methods of using” (priority 2005, dated 2010)

Assays:
Type in all cases: in vivo
[1] = system: Pennlinks creeping bentgrass maintained as a golf fairway; experiment: Turfgrass quality rating, fairway creeping bentgrass (Example 15); settings: scale of 1-9
Source text: (§1) In this Example, the effect of a fertilizer comprising lysine on cool season fairway turfgrass growth was examined. The effects of lysine (HCl) and LIQUID LYSINE on a common type of golf course fairway variety turfgrass (Pennlinks creeping bentgrass maintained as a golf fairway) were compared with those of urea, Milorganite and a blended fertilizer (a blend of methylene urea and urea in an approximately 1:1 ratio).
Fifteen fertilizer treatments comprising three concentrations of each fertilizer composition (Milorganite (N—P—K, 6-2-0), urea (N—P—K, 46-0-0), a blended fertilizer, LIQUID LYSINE (N—P—K, 10-2-1), and lysine (HCl) (N—P—K, 15-2-1)) were prepared and applied to 3 replications of a well established Pennlinks creeping bentgrass maintained as a golf fairway grass. The urea, lysine (HCl), and LIQUID LYSINE were dissolved/suspended in 1.5 gal water prior to application. […] The urea, LIQUID LYSINE and lysine (HCl) were applied as foliar liquids, while Milorganite and the blended fertilizer were applied as granular fertilizers. Plot size was 4 ft×8 ft laid out in a replicated complete block design. Plots were mowed at 0.5 inches before fertilizer application and mowed three times per week to 0.5 inch height. Grass clippings were not removed from the plots and no supplemental cultural maintenance was applied. Irrigation (0.15 inch) was applied following application and every other day thereafter. Plots were rated for turfgrass quality (scale of 1-9 where 9=dark green turf, 1=dead/brown turf, and 6=minimally acceptable turf and phytotoxic injury (scale of 0-9 where 9=significant foliar injury and 2=minimally objectional foliar injury) throughout the study period. Quality was measured prior to application (day 0) and day 37, day 70 and day 95 after application. Injury was measured on day 37, day 70 and day 95 after application. All data was subject to statistical analysis and significant means were determined. Average turfgrass quality ratings for the treatments are presented in Table 24.

[2] = system: Pennlinks creeping bentgrass for greens; experiment: Turfgrass quality rating, greens creeping bentgrass (Example 16); settings: scale of 1-9
Source text: as §1, with “greens quality” for “fairway”, “greens quality” for “fairway variety”, “for greens, mown at 0.1875 in height of cut)” for “maintained as a golf fairway)”
Fifteen fertilizer treatments comprising three concentrations of each fertilizer composition (Milorganite (N—P—K, 6-2-0), urea (N—P—K, 46-0-0), a blended fertilizer, LIQUID LYSINE N—P—K, 10-2-1), and lysine (HCl) (N—P—K, 15-2-1)) were prepared and applied to 3 replications of well established Pennlinks creeping bentgrass mown to 0.1875 in height cut. The urea, lysine (HCl), and LIQUID LYSINE were dissolved/suspended in 1.5 gal water prior to application. Each fertilizer treatment was applied in concentrations of 0.125 lb N/1000 ft^2/week, 0.250 lb N/1000 ft^2/week and 0.750 lb N/1000 ft^2/week. The urea, LIQUID LYSINE and lysine (HCl) were applied as foliar liquids, while Milorganite and blended fertilizer were applied as granular fertilizers. Plot size was 4 ft×8 ft laid out in a replicated complete block design. Plots were mowed at 0.1875 inches height before fertilizer application and mowed five times per week to 0.1875 inch height. Grass clippings were removed from the plots after each mowing. Irrigation (0.15 inch) was applied following application and daily thereafter. Plots were rated for turfgrass quality (scale of 1-9 where 9=dark green turf, 1=dead/brown turf, and 6=minimally acceptable turf) and phytotoxic injury (scale of 0-9 where 9=significant foliar injury and 2=minimally objectionable foliar injury) throughout the study period. Quality was measured prior to application (day 0) and day 37, day 70 and day 95 after application. Injury was measured on day 37, day 70 and day 95 after application. Ai) additional set of turfgrass plots were fertilized with three treatments of a soy concentrate fertilizer with the same application rates and methods. The quality and phytotoxic injury of the soy concentrate fertilizer plots were measured on day 95. All data was subject to statistical analysis and significant means were determined.

[3] = system: Moonlight Kentucky bluegrass; experiment: Phytotoxic injury rating, Kentucky bluegrass lawn (Example 17)
Source text: as §1, with “lawn variety” for “fairway”, “variety” for “type”, “law” for “golf course fairway variety”, “(Moonlight Kentucky bluegrass)” for “(Pennlinks creeping bentgrass maintained as a golf fairway)”
Fifteen fertilizer treatments comprising three concentrations of each fertilizer composition (Milorganite N—P—K, 6-2-0), urea (N—P—K, 46-0-0), a blended fertilizer, LIQUID LYSINE (N—P—K, 10-2-1), and lysine (HCl) (N—P—K, 15-2-1)) were prepared and applied to 3 replications of newly established “Moonlight” variety Kentucky bluegrass lawn turfgrass. The urea, lysine (HCl), and LIQUID LYSINE were dissolved/suspended in 1.5 gal water prior to application. […], […], The urea, LIQUID LYSINE and lysine (HCl) were applied as foliar liquids, while Milorganite and the blended fertilizer were applied as granular fertilizers. Plot size was 4 ft×8 ft laid out in a replicated complete block design. Plots were mowed at 2.0 inches before fertilizer application and mowed two times per week to 2.0 inch height. Grass clippings were not removed from the plots and no supplemental cultural maintenance or pest management was applied. Irrigation (0.15 inch) was applied following application and thereafter only when necessary to insure survival of the turf. Plots were rated for turfgrass quality (scale of 1-9 where 9=dark green turf, 1=dead/brown turf, and 6=minimally acceptable turf) and phytotoxic injury (scale of 0-9 where 9=significant foliar injury and 2=minimally objectionable foliar injury) throughout the study period. Quality was measured prior to application (day 0) and day 37, day 70 and day 95 after application. Injury was measured on day 37 and day 70 after application. In addition, blade density of the grass was measured on day 70 after application (scale of 1-9, where 9=very dense turf, 1=low density turf). All data was subject to statistical analysis and significant means were determined.

[4] = Weekly Rate 0.5 lbs N/1000 ft^2, Day 0
[5] = Weekly Rate 0.5 lbs N/1000 ft^2, Day 37
[6] = Weekly Rate 0.5 lbs N/1000 ft^2, Day 70
[7] = Weekly Rate 0.5 lbs N/1000 ft^2, Day 95
[8] = Weekly Rate 1.0 lbs N/1000 ft^2, Day 0
[9] = Weekly Rate 1.0 lbs N/1000 ft^2, Day 37
[10] = Weekly Rate 1.0 lbs N/1000 ft^2, Day 70
[11] = Weekly Rate 1.0 lbs N/1000 ft^2, Day 95
[12] = Weekly Rate 3.0 lbs N/1000 ft^2, Day 0
[13] = Weekly Rate 3.0 lbs N/1000 ft^2, Day 37
[14] = Weekly Rate 3.0 lbs N/1000 ft^2, Day 70
[15] = Weekly Rate 3.0 lbs N/1000 ft^2, Day 95
[16] = Weekly Rate 0.125 lbs N/1000 ft^2, Day 0
[17] = Weekly Rate 0.125 lbs N/1000 ft^2, Day 37
[18] = Weekly Rate 0.125 lbs N/1000 ft^2, Day 70
[19] = Weekly Rate 0.125 lbs N/1000 ft^2, Day 95
[20] = Weekly Rate 0.25 lbs N/1000 ft^2, Day 0
[21] = Weekly Rate 0.25 lbs N/1000 ft^2, Day 37
[22] = Weekly Rate 0.25 lbs N/1000 ft^2, Day 70
[23] = Weekly Rate 0.25 lbs N/1000 ft^2, Day 95
[24] = Weekly Rate 0.75 lbs N/1000 ft^2, Day 0
[25] = Weekly Rate 0.75 lbs N/1000 ft^2, Day 37
[26] = Weekly Rate 0.75 lbs N/1000 ft^2, Day 70
[27] = Weekly Rate 0.75 lbs N/1000 ft^2, Day 95

Cl.NCCCC[C@H](N)C(=O)O [Lys (HCl) 15% N, L-lysine monohydrochloride]
Quality Rating - Fairway Bentgrass [1, 4]: 6.3a | Quality Rating - Fairway Bentgrass [1, 5]: 6.0ab | Quality Rating - Fairway Bentgrass [1, 6]: 6.0 | Quality Rating - Fairway Bentgrass [1, 7]: 7.0a | Quality Rating - Fairway Bentgrass [1, 8]: 7.0a | Quality Rating - Fairway Bentgrass [1, 9]: 7.0a | Quality Rating - Fairway Bentgrass [1, 10]: 5.7 | Quality Rating - Fairway Bentgrass [1, 11]: 7.0a | Quality Rating - Fairway Bentgrass [1, 12]: 7.0a | Quality Rating - Fairway Bentgrass [1, 13]: 6.7ab | Quality Rating - Fairway Bentgrass [1, 14]: 5.7 | Quality Rating - Fairway Bentgrass [1, 15]: 7.0a | Quality Rating - Greens Bentgrass [2, 16]: 4.7cd | Quality Rating - Greens Bentgrass [2, 17]: 5.0de | Quality Rating - Greens Bentgrass [2, 18]: 6.0bc | Quality Rating - Greens Bentgrass [2, 19]: 6.0ab | Quality Rating - Greens Bentgrass [2, 20]: 4.7cd | Quality Rating - Greens Bentgrass [2, 21]: 6.0bcd | Quality Rating - Greens Bentgrass [2, 22]: 6.0bc | Quality Rating - Greens Bentgrass [2, 23]: 6.3ab | Quality Rating - Greens Bentgrass [2, 24]: 6.0a | Quality Rating - Greens Bentgrass [2, 25]: 7.0ab | Quality Rating - Greens Bentgrass [2, 26]: 7.0a | Quality Rating - Greens Bentgrass [2, 27]: 7.0a | Injury Rating - Kentucky Bluegrass [3, 5]: 1.7de | Injury Rating - Kentucky Bluegrass [3, 6]: 5.0c | Injury Rating - Kentucky Bluegrass [3, 9]: 2.7cd | Injury Rating - Kentucky Bluegrass [3, 10]: 6.0abc | Injury Rating - Kentucky Bluegrass [3, 13]: 6.3a | Injury Rating - Kentucky Bluegrass [3, 14]: 7.0ab

NC(N)=O [Urea, urea, reference compound]
Quality Rating - Fairway Bentgrass [1, 4]: 6.7a | Quality Rating - Fairway Bentgrass [1, 5]: 6.7ab | Quality Rating - Fairway Bentgrass [1, 6]: 6.0 | Quality Rating - Fairway Bentgrass [1, 7]: 7.0a | Quality Rating - Fairway Bentgrass [1, 8]: 7.0a | Quality Rating - Fairway Bentgrass [1, 9]: 7.0a | Quality Rating - Fairway Bentgrass [1, 10]: 6.7 | Quality Rating - Fairway Bentgrass [1, 11]: 7.0a | Quality Rating - Fairway Bentgrass [1, 12]: 6.3a | Quality Rating - Fairway Bentgrass [1, 13]: 7.0a | Quality Rating - Fairway Bentgrass [1, 14]: 6.0 | Quality Rating - Fairway Bentgrass [1, 15]: 7.0a | Quality Rating - Greens Bentgrass [2, 16]: 4.3de | Quality Rating - Greens Bentgrass [2, 17]: 4.7ef | Quality Rating - Greens Bentgrass [2, 18]: 5.7c | Quality Rating - Greens Bentgrass [2, 19]: 5.7b | Quality Rating - Greens Bentgrass [2, 20]: 5.0bc | Quality Rating - Greens Bentgrass [2, 21]: 6.3bc | Quality Rating - Greens Bentgrass [2, 22]: 6.0bc | Quality Rating - Greens Bentgrass [2, 23]: 6.0ab | Quality Rating - Greens Bentgrass [2, 24]: 5.3b | Quality Rating - Greens Bentgrass [2, 25]: 8.0a | Quality Rating - Greens Bentgrass [2, 26]: 7.0a | Quality Rating - Greens Bentgrass [2, 27]: 6.7ab | Injury Rating - Kentucky Bluegrass [3, 5]: 1.0e | Injury Rating - Kentucky Bluegrass [3, 6]: 5.0c | Injury Rating - Kentucky Bluegrass [3, 9]: 1.3e | Injury Rating - Kentucky Bluegrass [3, 10]: 5.7bc | Injury Rating - Kentucky Bluegrass [3, 13]: 3.3bc | Injury Rating - Kentucky Bluegrass [3, 14]: 7.0ab
